Reference: patent publication US20250296938A1, “Compounds that Interact with the Ras Superfamily for the Treatment of Cancers, Inflammatory Diseases, Rasopathies, and Fibrotic Disease” (SHY Therapeutics, LLC, priority 2018, published 2025)
Where two headings read alike, the source gives them in different places.

Assays:
Assay in all cases: Ras GTP binding domain inhibition assay (Cy3-GTP/Cy5-GTP competition)
KRas G12D mutant = biological target: T1, KRas G12D mutant (Homo sapiens, UniProt P01116, G12D); details: 20 μM
T1 construct: fused on or other part: His tag, used for capture on nickel-coated plates
Summary of the method: (§1)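 Ni-plate immobilised His-Ras, overnight 4 °C; cpd 20 μM (or dilution series for IC50), 1% DMSO, 3 h RT; optional His-Sos […] last hour; Cy3- or Cy5-GTP 100 nM, 45 min RT; 3× wash; bound fluorescence read.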

KRas Q61H mutant = test system: KRas Q61H mutant; set-up: species or system human; details: 20 μM; for KRas Q61H mutant + SOS: % inh.: with SOS; for KRas Q61H mutant: % inh.: without SOS
Summary of the method: as §1

KRas wild type = test system: KRas wild type; set-up: species or system human; details: 20 μM; for KRas wild type + SOS: % inh.: with SOS; for KRas wild type: % inh.: without SOS
Summary of the method: as §1

KRas G12C mutant = test system: KRas G12C mutant; set-up: species or system human; details: 20 μM; for KRas G12C mutant + SOS: % inh.: with SOS; for KRas G12C mutant: % inh.: without SOS
Summary of the method: as §1

[1] = with SOS, read-out: KRas G-12D mutant + SOS: % inh.
[2] = without SOS, read-out: KRas G12D mutant: % inh.

| Structure (SMILES) | inhibition at 20 µM (KRas G12D mutant; [1]) | inhibition at 20 µM (KRas G12D mutant; [2]) | KRas Q61H mutant + SOS: % inh. (KRas Q61H mutant) | KRas Q61H mutant: % inh. (KRas Q61H mutant) | KRas wild type + SOS: % inh. (KRas wild type) | KRas wild type: % inh. (KRas wild type) | KRas G12C mutant + SOS: % inh. (KRas G12C mutant) | KRas G12C mutant: % inh. (KRas G12C mutant) |
| --- | --- | --- | --- | --- | --- | --- | --- | --- |
| Cc1cn(C)c(-c2nc(O)c3scc(-c4ccccn4)c3n2)n1 [drawing 807] | 26 to 50% | 76 to 100% | C (51-75% inhibition) | A (1-25% inhibition) | B (26-50% inhibition) | D (76-100% inhibition) | C (51-75% inhibition) | C (51-75% inhibition) |
| Cc1cnc(-c2nc(O)c3scc(-c4ccccn4)c3n2)n1C [drawing 808] | 1 to 25% | 51 to 75% | B (26-50% inhibition) | A (1-25% inhibition) | A (1-25% inhibition) | C (51-75% inhibition) | B (26-50% inhibition) | C (51-75% inhibition) |
| O=C(NC1CCC1)c1nc(-c2ccccn2)nc(O)c1O [drawing 809] | 26 to 50% | 51 to 75% | B (26-50% inhibition) | D (76-100% inhibition) | A (1-25% inhibition) | D (76-100% inhibition) | B (26-50% inhibition) | C (51-75% inhibition) |
| COCCN(C)C(=O)c1nc(-c2ccccn2)nc(O)c1O [drawing 810] | 1 to 25% | 1 to 25% | A (1-25% inhibition) | A (1-25% inhibition) | A (1-25% inhibition) | B (26-50% inhibition) | A (1-25% inhibition) | C (51-75% inhibition) |
| CC(C)CNC(=O)c1nc(-c2ccccn2)nc(O)c1O [drawing 811] | 1 to 25% | 51 to 75% | B (26-50% inhibition) | C (51-75% inhibition) | A (1-25% inhibition) | D (76-100% inhibition) | B (26-50% inhibition) | D (76-100% inhibition) |
| O=C(NC1CCCC1)c1nc(-c2ccccn2)nc(O)c1O [drawing 812] | 1 to 25% | 51 to 75% | B (26-50% inhibition) | C (51-75% inhibition) | A (1-25% inhibition) | D (76-100% inhibition) | B (26-50% inhibition) | D (76-100% inhibition) |
| COc1c(O)nc(-c2ccccn2)nc1Oc1ccccc1 [drawing 813] | 26 to 50% | 26 to 50% | C (51-75% inhibition) | D (76-100% inhibition) | B (26-50% inhibition) | D (76-100% inhibition) | C (51-75% inhibition) | C (51-75% inhibition) |
| COCCc1ccc(Oc2nc(-c3ccccn3)nc(O)c2OC)cc1 [drawing 814] | 26 to 50% | 51 to 75% | C (51-75% inhibition) | B (26-50% inhibition) | B (26-50% inhibition) | D (76-100% inhibition) | B (26-50% inhibition) | A (1-25% inhibition) |
| COc1ccc(Oc2nc(-c3ccccn3)nc(O)c2OC)cc1 [drawing 815] | 26 to 50% | 76 to 100% | C (51-75% inhibition) | D (76-100% inhibition) | B (26-50% inhibition) | D (76-100% inhibition) | C (51-75% inhibition) | D (76-100% inhibition) |
| Oc1nc(-c2cn3ccccc3n2)nc2c(-c3ccccn3)csc12 [drawing 816] | 1 to 25% | 26 to 50% | B (26-50% inhibition) | B (26-50% inhibition) | A (1-25% inhibition) | C (51-75% inhibition) | B (26-50% inhibition) | B (26-50% inhibition) |
| O=C(NCc1ccccc1)c1nc(-c2ccccn2)nc(O)c1O [drawing 821] | 51 to 75% | 51 to 75% | C (51-75% inhibition) | D (76-100% inhibition) | B (26-50% inhibition) | D (76-100% inhibition) | C (51-75% inhibition) | B (26-50% inhibition) |
| COC1CCN(c2nc(-c3nccn3C)nc3sc(Br)c(-c4ccccc4)c23)C1 (stereo not drawn) [drawing 822] | 51 to 75% | 26 to 50% | C (51-75% inhibition) | B (26-50% inhibition) | D (76-100% inhibition) | C (51-75% inhibition) | D (76-100% inhibition) | B (26-50% inhibition) |
| Cn1ccnc1-c1nc(O)c(O)c(C(=O)NC2CCC2)n1 [drawing 825] | 26 to 50% | 51 to 75% | C (51-75% inhibition) | C (51-75% inhibition) | B (26-50% inhibition) | C (51-75% inhibition) | B (26-50% inhibition) | C (51-75% inhibition) |
| Cn1ccnc1-c1nc(O)c(O)c(C(=O)N2CCCCC2)n1 [drawing 826] | 1 to 25% | 26 to 50% | B (26-50% inhibition) | B (26-50% inhibition) | A (1-25% inhibition) | C (51-75% inhibition) | A (1-25% inhibition) | B (26-50% inhibition) |
| Cn1ccnc1-c1nc(O)c(O)c(C(=O)NC2CCCC2)n1 [drawing 827] | 26 to 50% | 51 to 75% | C (51-75% inhibition) | C (51-75% inhibition) | B (26-50% inhibition) | C (51-75% inhibition) | B (26-50% inhibition) | C (51-75% inhibition) |
| Cn1ccnc1-c1nc(O)c(O)c(C(=O)N2CCCC2)n1 [drawing 828] | 1 to 25% | 26 to 50% | B (26-50% inhibition) | C (51-75% inhibition) | A (1-25% inhibition) | B (26-50% inhibition) | A (1-25% inhibition) | B (26-50% inhibition) |
| CCN(CC)C(=O)c1nc(-c2nccn2C)nc(O)c1O [drawing 829] | 1 to 25% | 51 to 75% | B (26-50% inhibition) | B (26-50% inhibition) | A (1-25% inhibition) | B (26-50% inhibition) | A (1-25% inhibition) | A (1-25% inhibition) |
| CC(C)NC(=O)c1nc(-c2nccn2C)nc(O)c1O [drawing 830] | 26 to 50% | 51 to 75% | C (51-75% inhibition) | C (51-75% inhibition) | B (26-50% inhibition) | C (51-75% inhibition) | B (26-50% inhibition) | C (51-75% inhibition) |
| O=C(c1nc(-c2ccccn2)nc(O)c1O)N1CCCC1 [drawing 831] | 1 to 25% | 51 to 75% | B (26-50% inhibition) | B (26-50% inhibition) | A (1-25% inhibition) | C (51-75% inhibition) | A (1-25% inhibition) | B (26-50% inhibition) |
| O=C(c1nc(-c2ccccn2)nc(O)c1O)N1CCc2ccccc2C1 [drawing 832] | 26 to 50% | 51 to 75% | B (26-50% inhibition) | C (51-75% inhibition) | B (26-50% inhibition) | C (51-75% inhibition) | B (26-50% inhibition) | C (51-75% inhibition) |
| Oc1nc(-c2ncc3n2CCCC3)nc2c(-c3ccccn3)csc12 [drawing 833] | 51 to 75% | 51 to 75% | C (51-75% inhibition) | C (51-75% inhibition) | B (26-50% inhibition) | C (51-75% inhibition) | C (51-75% inhibition) | D (76-100% inhibition) |
